Test results taken from BindingDB's records for doi:10.1021/jm00099a006 (Merck Research Laboratories, 1992).

target: T1, Gag-Pol polyprotein [588-1027]/[588-1147] (Human immunodeficiency virus 1, UniProt P04585); assay: HIV-1 RT Assay; settings: pH 8.2
T1 construct: 588-1027; 588-1147

**Q.** For O=C1c2ccccc2C(=O)N1CCc1cccnc1O [2-[2-(2-oxo-1,2-dihydropyridin-3-yl)ethyl]-2,3-dihydro-1H-isoindole-1,3-dione], which IC50 is on record?
**A.** The IC50 was greater than 300 µM.

**Q.** With CCc1cc(C(O)CN2C(=O)c3ccccc3C2=O)c(OC)nc1C (stereo not drawn) [2-[2-(5-ethyl-2-methoxy-6-methylpyridin-3-yl)-2-hydroxyethyl]-2,3-dihydro-1H-isoindole-1,3-dione] as the molecule, how does the IC50 read?
**A.** Its IC50 is greater than 300 µM.

**Q.** CCc1cc(C(=O)CN2C(=O)c3ccccc3C2=O)c(OC)nc1C [2-[2-(5-ethyl-2-methoxy-6-methylpyridin-3-yl)-2-oxoethyl]-2,3-dihydro-1H-isoindole-1,3-dione] was tested. Which IC50 did it give?
**A.** The IC50 was greater than 300 µM.

**Q.** With CCc1cc(CCN2C(=O)c3ccccc3C2=O)c(OC)nc1C [2-[2-(5-ethyl-2-methoxy-6-methylpyridin-3-yl)ethyl]-2,3-dihydro-1H-isoindole-1,3-dione] as the molecule, how does the IC50 read?
**A.** Its IC50 is 6.2 µM.

**Q.** CCc1cc(C(O)CN2C(=O)c3ccccc3C2=O)c(O)nc1C (stereo not drawn) [2-[2-(5-ethyl-6-methyl-2-oxo-1,2-dihydropyridin-3-yl)-2-hydroxyethyl]-2,3-dihydro-1H-isoindole-1,3-dione] was tested. Which IC50 did it give?
**A.** The IC50 was greater than 300 µM.

**Q.** With CCc1cc(C(=O)CN2C(=O)c3ccccc3C2=O)c(=O)[nH]c1C [2-[2-(5-ethyl-6-methyl-2-oxo-1,2-dihydropyridin-3-yl)-2-oxoethyl]-2,3-dihydro-1H-isoindole-1,3-dione] as the molecule, how does the IC50 read?
**A.** Its IC50 is greater than 300 µM.

**Q.** With CCc1cc(CCCN2C(=O)c3ccccc3C2=O)c(OC)nc1C [2-[3-(5-ethyl-2-methoxy-6-methylpyridin-3-yl)propyl]-2,3-dihydro-1H-isoindole-1,3-dione] as the molecule, how does the IC50 read?
**A.** The IC50 was greater than 300 µM.

**Q.** Which IC50 does the source give for CCc1cc(CN2C(=O)c3ccccc3C2=O)c(OC)nc1C [2-[(5-ethyl-2-methoxy-6-methylpyridin-3-yl)methyl]-2,3-dihydro-1H-isoindole-1,3-dione] here?
**A.** The IC50 was 16 µM.
